# From patent US10596296B2, “Heparan sulphates” (Agency for Science, Technology and Research, priority 2014, dated 2020)
# Assays:
# TGF-β1 = target: T1, TGF-β1 (Homo sapiens, UniProt P01137); assay: SPR analysis of TGF-β1 binding to biotinylated heparin on SA chip
# T1 construct: full length mature TGF-β1 is 112 amino acids in length
# Protocol: Biotinylated heparin was prepared based on the protocol reported by Hernaiz et al. (33). Briefly, 20 mg of heparin was filter-sterilized (0.22 μm) in 1 ml of water and incubated with 8.6 μmol of N-hydroxysuccinimide-biotin (NHS-biotin) (Pierce) in 20 μl of dimethyl sulfoxide (DMSO) for 2 h at 4° C. The biotinylated heparin was then extensively dialyzed (7000 MWCO) to remove unreacted biotin. Immobilization of the biotinylated heparin onto a streptavidin (SA) sensor chip (GE Healthcare) was carried out using the immobilization wizard on the Biacore T100 (GE Healthcare) with a targeted immobilization level of approximately 40 response units (RUs). HBS-EP running buffer (10 mM HEPES, 150 mM NaCl, 3.0 mM EDTA, 0.05% (v/v) Tween 20, pH 7.4) was used for the immobilization.
# TGF-β1-heparin interactions were effected by preparing a series of TGF-β1 protein samples (50 to 800 nM final concentration) diluted in HBS-EP-0.1 running buffer (0.1% instead of 0.05% (v/v) Tween 20). […] The sample solutions were then injected over the heparin-coated chip at a flow rate of 30 μl/min for 120 s, with HBS-EP-0.1 being subsequently passed over the chip for a further 1200 s to monitor TGF-β1 dissociation. After dissociation, the sensor surface on the chip was regenerated by 2 washes of 2 M NaCl injected at 30 μl/min for 60 s. The response was measured as a function of time (sensogram) at 25° C. […]
# LTGF-β1 = LTGF-β1 (Homo sapiens, UniProt P01137); conditions: reference (56); cited from earlier work
# [1] = system: chondrogenic differentiation of hMSCs; assay: Alcian blue staining of chondrogenic micromass pellets; assay type: cell-based, human; conditions: 21 days; 1 ng/mL TGF-β1 with 10 μg/mL GAG
# Protocol: In order to assess the effects of HS16+ve on the chondrogenic differentiation of hMSCs in vitro, it was first necessary to establish the effects of TGF-β1 alone. Chondrogenic differentiation was carried out using a modified micromass culture system. [Zhang, L., et al., Chondrogenic differentiation of human mesenchymal stem cells: a comparison between micromass and pellet culture systems. Biotechnol Lett, 2010. 32(9): p. 1339-1346.]. Briefly, passage 4 hMSCs were harvested and resuspended in chemically defined chondrogenic media (PT-3003, Lonza, MD, USA) at 2×10^7 cells/mL. Droplets of 12.5 μL were then seeded into the middle of each well in a 24-well plate and left to adhere at 37° C. for 2 h, after which, 500 μL of chondrogenic media supplemented with either 1 or 10 ng/mL of TGF-β1 (100-210, PeproTech) alone or with either 5 or 10 μg/mL of heparin (Sigma-Aldrich), porcine mucosal HS (HSPM) (Celsus laboratories), HS16+ve or HS16-ve was added to each well. The cell droplets coalesced into spherical masses after 24 h. Media was changed every 3 days and the micromasses harvested on days 3, 7, 14 and 21.
# T1 sequence (P01137 279-390 limits assumed): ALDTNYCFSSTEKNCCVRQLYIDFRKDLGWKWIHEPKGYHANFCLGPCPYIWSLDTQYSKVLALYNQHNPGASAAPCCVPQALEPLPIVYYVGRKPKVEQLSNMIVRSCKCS
# Chain of LTGF-β1 (P01137 279-390 limits assumed): as above
# Chain of LTGF-β1 (P01137 30-278 limits assumed): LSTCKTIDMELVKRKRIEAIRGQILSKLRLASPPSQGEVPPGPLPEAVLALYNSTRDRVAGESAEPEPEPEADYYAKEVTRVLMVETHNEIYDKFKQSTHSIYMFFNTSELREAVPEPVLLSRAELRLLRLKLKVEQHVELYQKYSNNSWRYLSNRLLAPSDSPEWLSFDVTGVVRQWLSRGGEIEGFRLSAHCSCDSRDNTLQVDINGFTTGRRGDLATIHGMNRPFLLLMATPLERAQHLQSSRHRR
substance,measurement,setting,value
heparin,TGF-β1 binding to heparin immobilized on Biacore SA-chip,TGF-β1,bound in a dose-dependent manner
same,Kd,TGF-β1; TGF-β1 50 to 800 nM injected over heparin-coated SA chip,~475 nM
same,effect on activation of LTGF-β1,LTGF-β1,inhibit the activation of LTGF-β1
same,GAG deposition by Alcian blue staining relative to 1 ng/mL TGF-β1 alone,[1],slight increase in GAG deposition
